In one assay the target is T1, PI3Kδ (Homo sapiens, UniProt O00329).
T1 construct: endogenous in cells; host or cells: Jurkat (ATCC TIB-152, clone E6-1) and Ramos (ATCC CRL-1596), 1:1 lysate mix
The experiment in a line: kinobeads assay, PI3Kδ. The following applies: 1:1 mix of Jurkat and Ramos cell lysates, read-out: Inhibition values (IC50 in μM) as determined in the kinobeads assay, PI3Kδ. Type of assay: binding. The essentials: (§1)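 Competition binding in 1:1 Jurkat/Ramos cell lysate (5 mg/ml protein) with test compound and a 1:1 mix of phenylthiazole- and phenylmorpholin-chromen-ligand beads, 2 h in cold room with shaking. Bead-bound kinases were eluted, quantified by antibody dot blot with infrared detection, and IC50 derived from dose-response curves.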

The target in a further assay is T2, PI3Kβ (Homo sapiens, UniProt P42338).
T2 construct: endogenous in cells; host or cells: Jurkat (ATCC TIB-152, clone E6-1) and Ramos (ATCC CRL-1596), 1:1 lysate mix
T2 sequence (P42338 whole entry): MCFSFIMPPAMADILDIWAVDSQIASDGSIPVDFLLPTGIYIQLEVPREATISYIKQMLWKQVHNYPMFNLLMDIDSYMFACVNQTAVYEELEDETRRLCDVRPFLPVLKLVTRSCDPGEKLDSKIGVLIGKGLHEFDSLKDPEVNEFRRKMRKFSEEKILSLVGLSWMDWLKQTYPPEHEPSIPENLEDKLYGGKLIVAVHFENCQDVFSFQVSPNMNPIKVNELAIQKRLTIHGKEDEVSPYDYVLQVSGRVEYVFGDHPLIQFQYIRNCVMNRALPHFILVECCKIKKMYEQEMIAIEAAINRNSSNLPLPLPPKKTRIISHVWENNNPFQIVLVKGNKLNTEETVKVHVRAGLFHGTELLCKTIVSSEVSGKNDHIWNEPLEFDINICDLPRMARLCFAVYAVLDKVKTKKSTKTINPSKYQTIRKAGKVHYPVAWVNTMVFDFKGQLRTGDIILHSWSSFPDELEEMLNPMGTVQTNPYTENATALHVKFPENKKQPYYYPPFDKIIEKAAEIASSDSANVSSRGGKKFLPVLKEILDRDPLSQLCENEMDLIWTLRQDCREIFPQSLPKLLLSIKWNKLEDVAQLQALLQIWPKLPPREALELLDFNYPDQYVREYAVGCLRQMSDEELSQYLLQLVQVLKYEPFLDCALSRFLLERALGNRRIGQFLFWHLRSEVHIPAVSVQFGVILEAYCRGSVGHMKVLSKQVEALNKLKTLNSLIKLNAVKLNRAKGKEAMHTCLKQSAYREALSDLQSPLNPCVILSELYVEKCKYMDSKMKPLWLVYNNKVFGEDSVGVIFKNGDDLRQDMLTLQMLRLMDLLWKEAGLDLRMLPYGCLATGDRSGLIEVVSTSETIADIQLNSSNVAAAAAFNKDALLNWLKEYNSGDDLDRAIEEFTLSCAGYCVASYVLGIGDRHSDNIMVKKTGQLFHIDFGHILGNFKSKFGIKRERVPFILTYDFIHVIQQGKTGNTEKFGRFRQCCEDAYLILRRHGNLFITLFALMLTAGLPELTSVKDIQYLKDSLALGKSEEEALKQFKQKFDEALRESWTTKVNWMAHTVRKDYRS
T2 sequence (P27986 whole entry partner): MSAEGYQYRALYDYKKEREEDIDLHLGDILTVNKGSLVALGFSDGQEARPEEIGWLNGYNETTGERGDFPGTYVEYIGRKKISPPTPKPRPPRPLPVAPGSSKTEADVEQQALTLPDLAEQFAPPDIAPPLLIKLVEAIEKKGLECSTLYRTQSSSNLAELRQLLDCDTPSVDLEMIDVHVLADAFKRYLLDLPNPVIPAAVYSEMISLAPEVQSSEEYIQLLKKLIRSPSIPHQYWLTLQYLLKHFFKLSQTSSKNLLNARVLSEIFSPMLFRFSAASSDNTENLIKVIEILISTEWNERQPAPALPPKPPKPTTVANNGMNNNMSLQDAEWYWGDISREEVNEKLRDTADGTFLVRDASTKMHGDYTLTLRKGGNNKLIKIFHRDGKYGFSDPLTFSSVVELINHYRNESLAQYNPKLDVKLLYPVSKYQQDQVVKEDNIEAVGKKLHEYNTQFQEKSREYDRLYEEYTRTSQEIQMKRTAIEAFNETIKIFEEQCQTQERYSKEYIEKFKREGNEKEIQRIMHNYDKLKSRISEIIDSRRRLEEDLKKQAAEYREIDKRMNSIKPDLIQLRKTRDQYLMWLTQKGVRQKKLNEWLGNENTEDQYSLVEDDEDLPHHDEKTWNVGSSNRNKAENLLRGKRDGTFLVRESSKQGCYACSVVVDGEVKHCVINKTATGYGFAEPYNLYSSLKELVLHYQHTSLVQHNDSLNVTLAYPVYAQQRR
The experiment in a line: kinobeads assay, PI3Kβ. Format: binding. As to conditions: 1:1 mix of Jurkat and Ramos cell lysates, read-out: Inhibition values (IC50 in μM) as determined in the kinobeads assay, PI3Kβ. The essentials: as §1

For a further assay, the target named is T3, PI3Kα (Homo sapiens, UniProt P42336).
T3 construct: endogenous in cells; host or cells: Jurkat (ATCC TIB-152, clone E6-1) and Ramos (ATCC CRL-1596), 1:1 lysate mix
T3 sequence (P42336 whole entry): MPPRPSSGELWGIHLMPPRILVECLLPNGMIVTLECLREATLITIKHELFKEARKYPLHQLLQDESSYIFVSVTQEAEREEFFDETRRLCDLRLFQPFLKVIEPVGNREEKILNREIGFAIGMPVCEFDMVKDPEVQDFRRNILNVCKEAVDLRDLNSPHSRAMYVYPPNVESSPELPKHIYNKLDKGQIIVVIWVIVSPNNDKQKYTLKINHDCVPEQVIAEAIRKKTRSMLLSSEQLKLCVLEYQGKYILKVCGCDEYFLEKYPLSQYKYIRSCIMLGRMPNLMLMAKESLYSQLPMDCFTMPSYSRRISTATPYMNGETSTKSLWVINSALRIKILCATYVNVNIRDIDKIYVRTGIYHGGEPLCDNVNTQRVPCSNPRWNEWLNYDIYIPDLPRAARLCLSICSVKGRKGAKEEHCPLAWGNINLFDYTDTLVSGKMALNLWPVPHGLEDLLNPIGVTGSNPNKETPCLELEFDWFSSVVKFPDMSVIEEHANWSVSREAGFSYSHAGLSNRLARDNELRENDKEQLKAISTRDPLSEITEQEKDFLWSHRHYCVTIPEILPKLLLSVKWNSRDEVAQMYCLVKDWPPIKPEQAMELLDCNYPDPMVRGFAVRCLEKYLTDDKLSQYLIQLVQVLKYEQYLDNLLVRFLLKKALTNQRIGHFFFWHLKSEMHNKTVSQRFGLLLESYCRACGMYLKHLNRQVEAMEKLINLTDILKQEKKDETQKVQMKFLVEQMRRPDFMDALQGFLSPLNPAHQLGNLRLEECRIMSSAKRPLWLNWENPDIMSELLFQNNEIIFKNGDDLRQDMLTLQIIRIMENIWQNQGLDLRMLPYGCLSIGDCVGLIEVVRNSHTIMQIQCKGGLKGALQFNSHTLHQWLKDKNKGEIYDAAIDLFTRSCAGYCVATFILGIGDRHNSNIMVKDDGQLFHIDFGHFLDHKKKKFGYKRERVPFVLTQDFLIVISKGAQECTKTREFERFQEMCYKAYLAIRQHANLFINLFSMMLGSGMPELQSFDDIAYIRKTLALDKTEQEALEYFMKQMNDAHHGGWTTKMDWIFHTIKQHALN
T3 sequence (P27986 whole entry partner): as the sequence (P27986 whole entry partner) above
The assay can be described thus: kinobeads assay, PI3Kα. The following applies: 1:1 mix of Jurkat and Ramos cell lysates, read-out: Inhibition values (IC50 in μM) as determined in the kinobeads assay, PI3Kα. Format: binding. The method in brief: as §1

The target in assay [1] is T4, DNA-dependent protein kinase (DNA-PK) (Homo sapiens, UniProt P78527).
T4 construct: endogenous in cells; host or cells: Jurkat (ATCC TIB-152, clone E6-1) and Ramos (ATCC CRL-1596), 1:1 lysate mix
The experiment in a line: kinobeads assay, DNA-PK. Type of assay: binding. The following applies: 1:1 mix of Jurkat and Ramos cell lysates, read-out: Inhibition values (IC50 in μM) as determined in the kinobeads assay, DNA-PK. The essentials: as §1

The next assay concerns the target T5, PI3Kγ (Homo sapiens, UniProt P48736).
T5 construct: endogenous in cells; host or cells: Jurkat (ATCC TIB-152, clone E6-1) and Ramos (ATCC CRL-1596), 1:1 lysate mix
The experiment in a line: kinobeads assay, PI3Kγ. Type of assay: binding. As to conditions: 1:1 mix of Jurkat and Ramos cell lysates, read-out: Inhibition values (IC50 in μM) as determined in the kinobeads assay, PI3Kγ. The method in brief:
as §1

In a further assay the target is T6, mTOR (Homo sapiens, UniProt P42345).
T6 construct: endogenous in cells; host or cells: Jurkat (ATCC TIB-152, clone E6-1) and Ramos (ATCC CRL-1596), 1:1 lysate mix
The assay can be described thus: mTOR kinobeads assay (competition binding in cell lysate, dot blot detection). As to conditions: 1:1 mix of Jurkat and Ramos cell lysates, read-out: Inhibition values (IC50 in μM) as determined in the kinobeads assay, mTor. The method in brief: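 Competition binding in a 1:1 mix of Jurkat and Ramos cell lysates at 5 mg/ml total protein, with compounds in a 1:3 dilution series and an affinity matrix of two immobilized ligands, 2 h in the cold with shaking. mTOR captured on the beads was eluted and quantified by antibody dot blot with infrared detection. IC50 came from dose-response curves.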

Five molecules from patent US20140163023A1, “DIHYDROPYRROLO PYRIMIDINE DERIVATIVES AS MTOR INHIBITORS” (Cellzome Limited, priority 2011, published 2014) can be followed below.

T5 sequence (P48736 whole entry): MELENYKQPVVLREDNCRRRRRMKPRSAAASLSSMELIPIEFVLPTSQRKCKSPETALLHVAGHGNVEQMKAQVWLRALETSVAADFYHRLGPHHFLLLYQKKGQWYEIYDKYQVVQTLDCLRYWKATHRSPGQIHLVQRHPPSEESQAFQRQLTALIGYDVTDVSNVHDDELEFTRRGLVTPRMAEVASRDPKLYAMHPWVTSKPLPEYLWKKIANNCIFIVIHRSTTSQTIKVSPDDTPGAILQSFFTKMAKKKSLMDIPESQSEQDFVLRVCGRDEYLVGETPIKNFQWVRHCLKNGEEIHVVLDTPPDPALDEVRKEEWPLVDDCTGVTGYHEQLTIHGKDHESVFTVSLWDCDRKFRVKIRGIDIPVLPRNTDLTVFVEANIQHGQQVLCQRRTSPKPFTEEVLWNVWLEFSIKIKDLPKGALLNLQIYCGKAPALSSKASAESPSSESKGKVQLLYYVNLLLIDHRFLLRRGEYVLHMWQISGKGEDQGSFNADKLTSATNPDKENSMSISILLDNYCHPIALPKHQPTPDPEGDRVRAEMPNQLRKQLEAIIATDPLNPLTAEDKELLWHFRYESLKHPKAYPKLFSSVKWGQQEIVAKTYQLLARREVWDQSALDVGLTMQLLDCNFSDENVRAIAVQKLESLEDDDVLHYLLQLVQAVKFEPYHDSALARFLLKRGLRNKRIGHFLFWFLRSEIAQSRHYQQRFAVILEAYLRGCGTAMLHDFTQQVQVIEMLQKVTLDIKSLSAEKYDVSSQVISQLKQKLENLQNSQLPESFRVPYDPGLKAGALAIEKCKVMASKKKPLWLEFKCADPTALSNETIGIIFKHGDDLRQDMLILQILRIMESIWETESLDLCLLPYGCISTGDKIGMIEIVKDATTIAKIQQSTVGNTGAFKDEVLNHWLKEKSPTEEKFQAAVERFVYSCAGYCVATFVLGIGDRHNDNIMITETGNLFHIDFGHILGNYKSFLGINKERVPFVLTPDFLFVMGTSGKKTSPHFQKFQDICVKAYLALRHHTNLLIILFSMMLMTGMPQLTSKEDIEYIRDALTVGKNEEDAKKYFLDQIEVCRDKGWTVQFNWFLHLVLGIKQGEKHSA
T1 sequence (O00329 whole entry): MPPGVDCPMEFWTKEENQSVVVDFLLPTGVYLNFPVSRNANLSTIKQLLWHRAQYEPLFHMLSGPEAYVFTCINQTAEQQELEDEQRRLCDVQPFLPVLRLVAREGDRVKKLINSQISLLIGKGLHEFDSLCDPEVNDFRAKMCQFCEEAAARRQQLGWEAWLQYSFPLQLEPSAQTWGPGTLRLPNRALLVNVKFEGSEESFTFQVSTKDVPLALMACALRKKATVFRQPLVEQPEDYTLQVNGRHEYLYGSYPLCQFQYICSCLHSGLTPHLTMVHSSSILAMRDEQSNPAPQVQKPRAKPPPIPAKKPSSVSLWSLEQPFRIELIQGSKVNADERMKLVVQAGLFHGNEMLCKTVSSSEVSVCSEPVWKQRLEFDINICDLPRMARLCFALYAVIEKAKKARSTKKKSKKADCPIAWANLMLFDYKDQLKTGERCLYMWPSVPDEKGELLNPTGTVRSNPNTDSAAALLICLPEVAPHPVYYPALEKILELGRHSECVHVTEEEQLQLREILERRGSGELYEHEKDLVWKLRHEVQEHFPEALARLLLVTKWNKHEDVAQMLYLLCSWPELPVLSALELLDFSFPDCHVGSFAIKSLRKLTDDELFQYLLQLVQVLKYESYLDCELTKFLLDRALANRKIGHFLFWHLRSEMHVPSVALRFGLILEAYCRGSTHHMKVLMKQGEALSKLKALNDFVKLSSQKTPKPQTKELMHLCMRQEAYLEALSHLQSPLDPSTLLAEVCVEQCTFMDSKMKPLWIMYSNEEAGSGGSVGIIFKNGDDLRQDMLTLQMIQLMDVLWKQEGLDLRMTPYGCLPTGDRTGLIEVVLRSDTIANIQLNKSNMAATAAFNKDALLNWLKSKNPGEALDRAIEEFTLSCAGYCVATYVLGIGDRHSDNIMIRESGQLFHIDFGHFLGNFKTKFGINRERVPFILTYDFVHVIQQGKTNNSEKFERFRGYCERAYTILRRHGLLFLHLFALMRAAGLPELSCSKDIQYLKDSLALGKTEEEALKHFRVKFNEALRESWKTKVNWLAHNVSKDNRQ
T1 sequence (P27986 whole entry partner): as the sequence (P27986 whole entry partner) above

Regarding `CC(C)CN1Cc2nc(N3CC4CCC(C3)O4)nc(-c3ccc(NC(=O)NCCO)cc3)c2C1` [Example 48, 1-(4-(2-(8-oxa-3-azabicyclo[3.2.1]octan-3-yl)-6-isobutyl-6,7-dihydro-5H-pyrrolo[3,4-d]pyrimidin-4-yl)phenyl)-3-(2-hydroxyethyl)urea 2,2,2-trifluoroacetate], the concentration for half-maximal inhibition (IC50) – broadly, the midpoint of a concentration-inhibition curve – on PI3Kδ was more than 100 µM; on PI3Kβ, more than 100 µM; on PI3Kα, more than 100 µM; in assay [1] it was more than 100 µM; on PI3Kγ, more than 100 µM; at mTOR, 1 to 10 µM.
Take `CCNC(=O)Nc1ccc(-c2nc(N3CC4CCC(C3)O4)nc3c2CN(C(C)C)C3)cc1` [Example 49, 1-(4-(2-(8-oxa-3-azabicyclo[3.2.1]octan-3-yl)-6-isopropyl-6,7-dihydro-5H-pyrrolo[3,4-d]pyrimidin-4-yl)phenyl)-3-ethylurea 2,2,2-trifluoroacetate]: the IC50 was more than 100 µM at PI3Kδ; more than 100 µM on PI3Kβ; more than 100 µM on PI3Kα; more than 100 µM in assay [1]; more than 100 µM on PI3Kγ; 1 to 10 µM on mTOR.
For the molecule `CS(=O)(=O)N1Cc2nc(N3CC4CCC(C3)O4)nc(-c3ccc(NC(=O)NC4CC4)cc3)c2C1` [Example 50, 1-(4-(2-(8-oxa-3-azabicyclo[3.2.1]octan-3-yl)-6-(methylsulfonyl)-6,7-dihydro-5H-pyrrolo[3,4-d]pyrimidin-4-yl)phenyl)-3-cyclopropylurea], the IC50 was more than 100 µM at PI3Kδ; more than 100 µM at PI3Kβ; more than 100 µM on PI3Kα; more than 100 µM in assay [1]; more than 100 µM on PI3Kγ; 1 to 10 µM at mTOR.
With `CC(CO)NC(=O)Nc1ccc(-c2nc(N3CCOC[C@@H]3C)nc3c2CN(C(C)C)C3)cc1` (stereo partly drawn) [Example 51, 1-(1-hydroxypropan-2-yl)-3-(4-(6-isopropyl-2-((S)-3-methylmorpholino)-6,7-dihydro-5H-pyrrolo[3,4-d]pyrimidin-4-yl)phenyl)urea 2,2,2-trifluoroacetate], the IC50 at PI3Kδ was more than 100 µM; at PI3Kβ, more than 100 µM; at PI3Kα, more than 100 µM; in assay [1], more than 100 µM; at PI3Kγ, more than 100 µM; on mTOR it was 1 to 10 µM.
`CC(C)N1Cc2nc(N3CCOC[C@@H]3C)nc(-c3ccc(NC(=O)NCCC#N)cc3)c2C1` [Example 52, (S)-1-(2-cyanoethyl)-3-(4-(6-isopropyl-2-(3-methylmorpholino)-6,7-dihydro-5H-pyrrolo[3,4-d]pyrimidin-4-yl)phenyl)urea 2,2,2-trifluoroacetate]: the IC50 at PI3Kδ was more than 100 µM; on PI3Kβ it was more than 100 µM; at PI3Kα it was more than 100 µM; in assay [1], more than 100 µM; on PI3Kγ, more than 100 µM; on mTOR, 1 to 10 µM.
